Experimental data as given in patent publication US20060277615A1, “Method of determining xenograft responses” (priority 2003, published 2006).

What was measured:
[1] = test system: PC3/SFN cells xenografted tumours; experiment: Urine hCG in nude mice bearing PC3/SFN-hCG(myc)-Amp reporter xenografts; format: in vivo, congenitally athymic nude mice; conditions: for increase of normalised urine hCG levels: 48 hours post-dosing vs pre-dose, normalised against urine creatinine, relative to tumour volume; for hCG expression in individual mice compared to vehicle controls: single dose ip (etoposide 40 mg/kg, camptothecin 30 mg/kg), urine 48 hours after drug administration
Protocol: PC3 cells stably transfected with the SFN-hCG(myc)-Amp reporter construct were allowed to grow as solid subcutaneous tumours in congenitally athymic nude mice. The mice were then treated with anticancer drugs that act by inducing G2/M arrest. The drugs chosen for this exemplification were etoposide and camptothecin [12]. […] Wild-type and engineered PC3 tumour cell lines were cultured in RPMI medium supplemented with 10%-15% heat inactivated foetal calf serum, 2 mM L-glutamine, penicillin (50 IU/ml), streptomycin (50 μg/ml). Culture medium for PC3/SFN cells also contained G418 (200 μg/ml). Cultures were incubated in a humidified incubator at 37° C., 5% CO2. Cells were harvested, pooled, centrifuged, and re-suspended in cold medium. This was mixed with an equal volume of cold Matrigel, so that the tumour cell injection solution was a 50:50 mixture of tumour cells/medium and Matrigel for each cell line. Wild type or transfected PC3 cells were injected at 2.5×10^6 per animal. All cell lines were injected in a volume of 100 μl in the right hand flank only. The study consisted of 4 groups in total, each containing 4 animals. One group of mice was implanted with wild type PC3 cells and the remaining 3 groups with engineered cells. Tumour growth was measured twice-weekly following cell implantation until tumours reached 2-5 mm in diameter. Tumour volume (V) was calculated using the formula: V= 4/3π((d1+d2)/4)^3, where d=mean diameter (n=2) Treatment began 5 weeks after tumour implantation. Wild type PC3-xenografted mice remained untreated; all other mice were administered vehicle only (DMSO/saline) or test substances. Single administrations of Camptothecin (30 mg/kg) and Etoposide (40 mg/kg) were administered ip at 10 ml/kg. Additionally, Etoposide (25 mg/kg) was administered to a single group of mice over three consecutive days (ip; 10 ml/kg). Urine samples were harvested before, during and after drug administration. Animals were sacrificed 48 hours after treatment. Urine was analysed for hCG and values normalised against urine creatinine levels.

[2] = test system: PC3 cells containing the SFN-hCG(myc)-Amp reporter construct; experiment: hCG induction in PC3 cells transiently transfected with SFN-hCG(myc)-Amp reporter construct (ELISA of medium); format: cell-based, human; conditions: 50 μM etoposide, 24 hours, vs untreated
Protocol: The SFN-hCG(myc)-Amp reporter construct was transfected into PC3 cells on 6-well tissue culture plates using FuGene reagent (Roche, Lewes, East Sussex). Construct DNA (equivalent to 1 μg/well) was added to FuGene reagent (3 μl/well) and made up to 100 μl/well with serum free medium. The medium in which the cells were growing was aspirated off and replaced with 100 μl of the above mixture per well. For transient transfections, the cells were used for experiments 24 hours after the addition of the construct.

[3] = test system: PC3 cells stably engineered to contain the SFN-hCG(myc)-Amp construct; experiment: hCG induction in PC3 cells stably engineered to contain the SFN-hCG(myc)-Amp construct (ELISA of medium); format: cell-based, human; conditions: stable PC3 cell line, 24 hours
Protocol: To generate a stable cell line, transfection was carried out as above. After 24 hours the cells were trypsinised and transferred to 10 cm tissue culture dishes (one well of a six well plate per 10 cm dish). The cells were allowed to grow on these dishes for 7 days prior to selection. After this time, G418 (20 ng/ml in cell culture medium) was added and the dishes maintained until colonies became visible (approximately one week). Individual colonies were picked using cloning discs soaked in typsin and transferred to individual wells of a 24 well plate. The colonies were then expanded to 6 well plates then T25 flasks and grown up until sufficient cells were present for use in in vitro inductions and xenograft experiments. Following the generation of a stable cell line containing the SFN-hCG(myc)-Amp reporter construct, the cells were further tested using etoposide. The cells were plated out on 6 well plates and allowed to adhere overnight. The next day they were treated with etoposide (50 or 400 μM) or vehicle (dimethyl sulphoxide). After 24 hours in the presence or absence of etoposide, samples of the medium were taken and assayed for hCG by enzyme-linked immunosorbent assay as above.

SMILES: CC[C@@]1(O)C(=O)OCc2c1cc1n(c2=O)Cc2cc3ccccc3nc2-1 [camptothecin]
- increase of normalised urine hCG levels ([1]; single dose 30 mg/kg ip): 5.29 fold
- hCG expression in individual mice compared to vehicle controls [1]: significantly increased

SMILES: COc1cc([C@@H]2c3cc4c(cc3[C@@H](O[C@@H]3O[C@@H]5CO[C@@H](C)O[C@H]5[C@H](O)[C@H]3O)[C@H]3COC(=O)[C@H]23)OCO4)cc(OC)c1O [etoposide]
- amount of hCG secreted into the surrounding medium [2]: increased
- hCG levels at 24 and 48 hours following a third dose ([1]; 3 consecutive doses of 25 mg/kg ip, 24 and 48 hours after third dose): dropped to control levels
- normalised hCG expression following the first dose ([1]; 3 consecutive doses of 25 mg/kg ip, after first dose): sharp increase
- normalised hCG expression following a second dose ([1]; 3 consecutive doses of 25 mg/kg ip, after second dose): remained at this level
- anti-tumour effect against the PC3/SFN cells ([1]; 3 consecutive doses of 25 mg/kg ip, inferred from the drop in urine hCG): exhibited an anti-tumour effect
- increase of normalised urine hCG levels ([1]; single dose 40 mg/kg ip): 4.29 fold
- hCG expression in individual mice compared to vehicle controls [1]: significantly increased
- amount of hCG secreted at higher concentration ([3]; 400 μM vs 50 μM etoposide): increased
- amount of hCG secreted into the surrounding medium ([3]; etoposide 50 or 400 μM, vs vehicle (dimethyl sulphoxide)): increased
